In data set [1] the test system is cotton plants (Delta Pine variety). Description: Defoliation of young cotton plants under greenhouse conditions, Example C. As to conditions: foliar treatment of young cotton plants, 3 days after application, day/night 28/20° C., percentage of the control. Type of data set: in vivo. The procedure: Young cotton plants (Delta Pine variety, stage of development: 5-6 developed foliage leaves) were cultivated under green house conditions (day/night temperature 28/20° C., relative humidity […]) and the foliage was treated, until dripping wet, with aqueous formulations of the stated active ingredients. The converted amount of water was 1,000 l/ha. 3 days after application of the active ingredient, the number of dropped leaves and the degree of defoliation as a percentage of the control were stared. No dropping of leaves occurred in the untreated control plants.

The test system is the same in data set [2]. Description: Defoliation of young cotton plants under greenhouse conditions, Example A. Type of data set: in vivo. The conditions noted are these: 12 days after application, day/night 23/16° C., as a percentage of the control. The procedure: Young cotton plants (Delta Pine variety, development stage: 5-6 developed foliage leaves) were cultivated under greenhouse conditions (day/night temperature 23/16° C., relative humidity 50-70%) and the foliage was treated, until dripping wet, with aqueous formulations of the stated active ingredients. The converted amount of water was 1,000 l/ha. 12 days after application of the active ingredient, the number of dropped leaves and the degree of defoliation as a percentage of the control were stated. No dropping of leaves occurred in the untreated control plants.

[3] abbreviates: converted application rate 0.125 kg/ha.
Where [4] appears, read: converted application rate 0.250 kg/ha.

Where a name gives a salt, the structure may show the parent alone.

In general, melting point refers to the temperature, or range, at which the solid turns liquid.

Molecule `Cc1ncccc1C(=O)N(C)C` gave a melting point of 87 to 103 °C.
For `CC1CCCO1` (centres unmarked), the “% defoliation” value in data set [1] (setting [3]) came out at 48%; in data set [1] (setting [4]) it was 53%.
As for `O=C(Nc1ccccc1)Nc1cnns1` [Comparative agent I, N-phenyl-N′-(1,2,3-thiadiazol-5-yl)-urea, reference compound], the “% defoliation” value came to 13% in data set [2] (0.062 kg/ha), 31% in data set [2] (0.125 kg/ha) and 67% in data set [2] (0.250 kg/ha).
Regarding `c1cc[n+]2c(c1)-c1cccc[n+]1CC2` [Comparative agent II, 6,7-dihydropyridol(1,2-α:2′,1′-c)pyridilium as the dibromide monohydrate salt, reference compound], the “% defoliation” value in data set [2] (0.250 kg/ha) stood at 11%; in data set [2] (0.500 kg/ha), 27%.
Turning to `COC(=O)C(Br)=Cc1cc(N2C(=O)C3=C(CCCC3)C2=O)ccc1Cl` [Compound 1.1], the “% defoliation” value came to 26% in data set [2] (0.062 kg/ha); 61% in data set [2] (0.125 kg/ha); 80% in data set [2] (0.250 kg/ha); 100% in data set [1] (setting [3]); 98% in data set [1] (setting [4]).
The like results for `CCOC(=O)C(Cl)=Cc1cc(N2C(=O)C3=C(CCCC3)C2=O)ccc1Cl` [Compound 1.17, N-[3-(1′-ethoxycarbonyl-1′-chloroethenyl)-4-chlorophenyl]-3,4,5,6-tetrahydrophthalimide] were, in that order, 55%, 84%, 89%, 95% and 100%.
As for `COC(=O)C(C)=Cc1cc(N2C(=O)C3=C(CCCC3)C2=O)ccc1Cl` [Compound 1.26], the “% defoliation” value in data set [2] (0.062 kg/ha) was 67%; in data set [2] (0.125 kg/ha), 79%; in data set [2] (0.250 kg/ha) it was 89%.
In the case of `CC1CSC(c2cc(N3C(=O)C4=C(CCCC4)C3=O)ccc2Cl)S1` (centres unmarked) [Compound 2.5], the “% defoliation” value in data set [2] (0.062 kg/ha) is 50%; in data set [2] (0.125 kg/ha), 70%; in data set [2] (0.250 kg/ha), 97%; in data set [1] (setting [3]), 97%; in data set [1] (setting [4]) it was 100%.
Take `O=C1C2=C(CCCC2)C(=O)N1c1cc(OCC2CCCOC2)c(Cl)cc1F` (centres unmarked) [Compound 4.1]: the “% defoliation” value in data set [2] (0.062 kg/ha) amounted to 83%.
Turning to `COC(=O)C(C)ON=C(C#N)c1cc(N2C(=O)C3=C(CCCC3)C2=O)ccc1Cl` (centres unmarked) [Compound 7.27], the entries for the “% defoliation” value in data set [1] (setting [3]) and in data set [1] (setting [4]) were 100% and 95%, respectively.
